Our source for the IC50 values is US20180273528A1 (LES LABORATOIRES SERVIER, priority 2015, published 2018).

The target in experiment [1] is T1, His-TEV-DYRK1A Kinase domain (aa127-485) (Homo sapiens, UniProt Q13627).
T1 construct: His-TEV-DYRK1A Kinase domain (aa127-485); His tag (N); TEV protease cleavage site (N)
As to the kind of experiment: Kinase ADP assay (ADP Hunter), DYRK1A kinase domain. It counts as biochemical. As to conditions: 20 μM ATP. In outline: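 Compounds incubated 10 min at 30 °C with 20 nM enzyme, 40 μM peptide substrate and 20 μM ATP in pH 7.4 Hepes buffer with 10 mM MgCl2. ADP formed detected by ADP Hunter Plus reagents after 20 min at 30 °C, fluorescence read at 590 nm.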

In another experiment the target is T2, DYRK1B (Homo sapiens, UniProt Q9Y463).
T2 construct: full-length human kinases from Carna Biosciences; purchased Carna Biosciences 04-131
T2 sequence (Q9Y463 whole entry): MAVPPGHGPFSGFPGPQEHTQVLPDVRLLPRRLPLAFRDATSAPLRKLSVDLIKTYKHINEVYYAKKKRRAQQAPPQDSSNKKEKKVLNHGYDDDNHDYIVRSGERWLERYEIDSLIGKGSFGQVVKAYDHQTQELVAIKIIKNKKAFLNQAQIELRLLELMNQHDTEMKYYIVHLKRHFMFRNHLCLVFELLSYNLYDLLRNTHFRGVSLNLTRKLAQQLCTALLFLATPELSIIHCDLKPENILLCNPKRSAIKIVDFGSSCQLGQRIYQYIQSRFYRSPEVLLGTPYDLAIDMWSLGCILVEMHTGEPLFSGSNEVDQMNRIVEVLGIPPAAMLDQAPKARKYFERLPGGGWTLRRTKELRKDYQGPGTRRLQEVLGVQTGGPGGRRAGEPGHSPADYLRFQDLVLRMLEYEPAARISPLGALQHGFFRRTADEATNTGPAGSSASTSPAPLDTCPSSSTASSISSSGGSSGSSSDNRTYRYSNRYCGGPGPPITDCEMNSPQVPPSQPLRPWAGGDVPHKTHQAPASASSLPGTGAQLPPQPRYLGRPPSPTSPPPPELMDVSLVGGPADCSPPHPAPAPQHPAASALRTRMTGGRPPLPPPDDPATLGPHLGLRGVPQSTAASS
As to the kind of experiment: Kinase TR-FRET assay, DYRK1B. The class given is biochemical. As to conditions: full-length human kinase, 10 μM ATP. The procedure, abridged: (§1)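 Compounds tested at 0.1 nM to 30 μM in reaction buffer; reaction stopped with 10 mM EDTA. Phosphorylated MBP detected with 1 nM Europium-labelled anti-phospho-Thr232 antibody by TR-FRET.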
For orientation: In TR-FRET formats the signal depends on donor and acceptor labels being close together.

The next experiment concerns the target T3, CLK1 (Homo sapiens, UniProt P49759).
T3 construct: full-length human kinases from Carna Biosciences; purchased Carna Biosciences 04-126
The experiment is described as follows: Kinase TR-FRET assay, CLK1. The class given is biochemical. The settings on record: full-length human kinase, 10 μM ATP. The procedure:
Inhibition of the enzymatic activity of human kinases was evaluated in a Time-Resolved Fluorescence Resonance Energy Transfer (TR-FRET) assay in 384-well reaction plates. […] Test compounds of the invention were added in reaction buffer at a range of concentrations from 0.1 nM to 30 μM. Following addition of EDTA (Sigma E7889, 10 mM) to stop the reaction, Europium-labelled mouse monoclonal antibody recognizing phospho-Thr232 in MBP (Perkin Elmer TRF0201, 1 nM) was added.

The target of another experiment is T4, CDK9 (Homo sapiens, UniProt P50750).
T4 construct: full-length human kinases from Carna Biosciences; purchased Carna Biosciences 04-110
T4 sequence (P50750 whole entry): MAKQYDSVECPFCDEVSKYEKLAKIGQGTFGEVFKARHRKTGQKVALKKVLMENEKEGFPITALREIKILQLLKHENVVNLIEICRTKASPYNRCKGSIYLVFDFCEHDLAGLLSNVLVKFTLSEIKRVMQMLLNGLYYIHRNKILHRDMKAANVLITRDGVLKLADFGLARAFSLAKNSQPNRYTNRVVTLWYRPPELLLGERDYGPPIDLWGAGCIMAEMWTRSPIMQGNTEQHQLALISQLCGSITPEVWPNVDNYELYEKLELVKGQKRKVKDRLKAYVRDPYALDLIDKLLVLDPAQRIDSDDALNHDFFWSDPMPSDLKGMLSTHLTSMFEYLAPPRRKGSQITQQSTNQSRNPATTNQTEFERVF
T4 sequence (O60563 whole entry partner): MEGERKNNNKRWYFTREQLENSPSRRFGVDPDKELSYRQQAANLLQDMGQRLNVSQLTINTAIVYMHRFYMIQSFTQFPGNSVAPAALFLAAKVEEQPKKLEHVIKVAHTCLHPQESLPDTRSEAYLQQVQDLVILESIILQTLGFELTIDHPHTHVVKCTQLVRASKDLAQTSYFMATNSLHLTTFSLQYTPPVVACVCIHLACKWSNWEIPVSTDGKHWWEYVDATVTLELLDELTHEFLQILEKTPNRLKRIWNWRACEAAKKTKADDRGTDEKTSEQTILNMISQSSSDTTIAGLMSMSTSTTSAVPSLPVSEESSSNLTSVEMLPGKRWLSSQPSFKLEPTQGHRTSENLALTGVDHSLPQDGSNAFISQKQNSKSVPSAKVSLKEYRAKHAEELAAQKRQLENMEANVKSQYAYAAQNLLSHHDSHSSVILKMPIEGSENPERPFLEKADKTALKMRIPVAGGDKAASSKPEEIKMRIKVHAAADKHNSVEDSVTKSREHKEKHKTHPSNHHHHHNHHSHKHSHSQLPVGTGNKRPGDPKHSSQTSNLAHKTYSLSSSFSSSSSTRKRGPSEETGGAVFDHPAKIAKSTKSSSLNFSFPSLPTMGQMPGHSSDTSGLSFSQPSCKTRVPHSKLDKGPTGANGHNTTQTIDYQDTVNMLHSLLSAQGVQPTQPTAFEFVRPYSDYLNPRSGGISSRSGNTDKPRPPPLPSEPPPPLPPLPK
As to the kind of experiment: Kinase TR-FRET assay, CDK9. The class given is biochemical. The settings on record: full-length human kinase, 10 μM ATP. The procedure, abridged: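 Full-length human CDK9 (0.9 ng/μl) incubated 100 min at room temperature with 10 μM ATP, 100 nM ULight-MBP peptide and compound (0.1 nM–30 μM) in 50 mM HEPES pH 7.4, 1 mM EGTA, 10 mM MgCl2, 2 mM DTT, 0.01% Tween20. Stopped with 10 mM EDTA, then 1 nM Eu-anti-phospho-Thr232 MBP antibody added for 1 h. TR-FRET read at 665/620 nm with 340 nm excitation.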

For experiment [2], the target named is T5, DYRK1A (Homo sapiens, UniProt Q13627). As to the kind of experiment: Kinase TR-FRET assay, DYRK1A. Set-up: full-length, wild-type human DYRK1A (NM_001396) with an HA tag; expressed in transfected cells; host or cells: human U2-OS osteosarcoma cells, transient transfection of a pcDNA3.1 plasmid. It counts as biochemical. The settings on record: full-length human kinase, 10 μM ATP. In outline:
as §1

Experiment [3] addresses T5, DYRK1A. The experiment is described as follows: Cellular DYRK1 autophosphorylation assay in U2-OS cells. The class given is cell-based. Set-up: full-length, wild-type human DYRK1A (NM_001396) with an HA tag; expressed in transfected cells; host or cells: human U2-OS osteosarcoma cells, transient transfection of a pcDNA3.1 plasmid. The settings on record: U2-OS cells transfected with HA-tagged human DYRK1A, 5 hours exposure; read-out: IC50 (μM) P-Ser520-Dyrk1A -Cell assay. The procedure, abridged: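 U2-OS cells treated with a compound concentration range for 5 h. Phospho-Ser520-DYRK1A measured by western blot densitometry or Mesoscale ELISA. IC50 from dose-response curves; for blots, ratio of phospho-Ser520 to total DYRK1A signal.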

T3 sequence (P49759 1-526 isoform P49759-3): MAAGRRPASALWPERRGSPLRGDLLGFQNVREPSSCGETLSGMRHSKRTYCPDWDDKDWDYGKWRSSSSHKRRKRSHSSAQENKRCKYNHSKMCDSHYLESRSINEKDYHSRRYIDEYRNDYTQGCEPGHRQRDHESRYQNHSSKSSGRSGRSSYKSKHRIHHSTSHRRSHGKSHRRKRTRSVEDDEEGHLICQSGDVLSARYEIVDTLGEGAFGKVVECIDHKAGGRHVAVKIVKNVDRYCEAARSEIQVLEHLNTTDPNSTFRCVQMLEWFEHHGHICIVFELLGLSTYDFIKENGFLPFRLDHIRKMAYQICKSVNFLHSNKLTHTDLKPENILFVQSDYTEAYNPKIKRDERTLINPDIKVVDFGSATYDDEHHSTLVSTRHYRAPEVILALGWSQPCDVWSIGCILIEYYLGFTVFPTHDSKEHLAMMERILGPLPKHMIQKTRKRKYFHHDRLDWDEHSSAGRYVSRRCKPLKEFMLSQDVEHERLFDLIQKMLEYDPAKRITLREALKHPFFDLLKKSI

A word on the IC50: it is the concentration that inhibits the measured activity by half. Consider `Cc1nc2ccc(-c3cc(N)nc(N)c3)nc2n1C[C@H](C)Oc1ccccc1` (single isomer, unassigned) [Example 107], for which the IC50 in experiment [1] is 0.012 µM; at DYRK1B, 0.007 µM; at CLK1 it was 0.037 µM; at CDK9 it was greater than 3 µM; against DYRK1A [2], 0.008 µM; at DYRK1A [3], 0.111 µM.

As to `Cc1nc2ccc(-c3cc(N)nc(N)c3)nc2n1C[C@H]1C[C@@H]1c1ccccc1` (single isomer, unassigned) [Example 109], the IC50 in experiment [1] was 0.03 µM; at DYRK1B, 0.015 µM; at CLK1, 0.025 µM; on CDK9, greater than 3 µM; against DYRK1A [2], 0.01 µM; on DYRK1A [3], 0.22 µM.

Regarding `Cc1nc2ccc(-c3cc(N)nc(N)c3)nc2n1CC1Cc2ccccc21` (single isomer, unassigned) [Example 112, 4-[3-(bicyclo[4.2.0]octa-1,3,5-trien-7-ylmethyl)-2-methyl-3H-imidazo[4,5-b]pyridin-5-yl]pyridine-2,6-diamine], the IC50 in experiment [1] was determined as 0.005 µM; at DYRK1B, 0.014 µM; on CLK1, 0.025 µM; against CDK9, 2.62 µM; against DYRK1A [2], 0.006 µM; at DYRK1A [3] it was 0.09 µM.

Take `Cc1nc2ccc(-c3cc(N)nc(N)c3)nc2n1C[C@H](C)Oc1ccccn1` (single isomer, unassigned) [Example 174]: the IC50 in experiment [1] is 0.074 µM; against DYRK1B it was 0.013 µM; against CLK1, 0.083 µM; against CDK9 it was greater than 3 µM; at DYRK1A [2], 0.016 µM.

For the compound `Cc1nc2ccc(-c3cc(N)nc(N)c3)nc2n1C[C@@H](C)Oc1ccccn1` (single isomer, unassigned) [Example 175], the IC50 is 0.02 µM in experiment [1]; 0.016 µM against DYRK1B; 0.04 µM against CLK1; greater than 3 µM on CDK9; 0.007 µM against DYRK1A [2]; 0.131 µM at DYRK1A [3].

As to `Cc1nc2ccc(-c3cc(N)nc(N)c3)nc2n1C[C@@H](C)Oc1cccc(Cl)n1` (single isomer, unassigned) [Example 177], the IC50 in experiment [1] worked out at 0.014 µM; against DYRK1B it was 0.005 µM; against CLK1, 0.017 µM; at CDK9, 0.554 µM; on DYRK1A [2], 0.005 µM; at DYRK1A [3], 0.042 µM.

Turning to `Cc1nc2ccc(-c3cc(N)nc(N)c3)nc2n1C[C@@H](C)Oc1cccc(F)n1` (single isomer, unassigned) [Example 189], the half-maximal inhibitory concentration (IC50) stood at 0.013 µM in experiment [1]; 0.007 µM against DYRK1B; 0.017 µM against CLK1; 0.339 µM against CDK9; 0.007 µM against DYRK1A [2]; 0.026 µM on DYRK1A [3].

Regarding `C=CCCn1c(C)nc2ccc(-c3cc(N)nc(N)c3)nc21` [Example 14, 4-[3-(but-3-en-1-yl)-2-methyl-3H-imidazo[4,5-b]pyridin-5-yl]pyridine-2,6-diamine], the half-inhibitory concentration (IC50) was determined as 0.008 µM in experiment [1]; 0.001 µM against DYRK1B; 0.016 µM on CLK1; 1.95 µM against CDK9; 0.002 µM at DYRK1A [2]; 0.05 µM at DYRK1A [3].

With `Cc1nc2ccc(-c3cc(N)nc(N)c3)nc2n1C1CCC1` [Example 23, 4-(3-cyclobutyl-2-methyl-3H-imidazo[4,5-b]pyridin-5-yl)pyridine-2,6-diamine], the IC50 in experiment [1] was determined as 0.006 µM; at DYRK1B, 0.008 µM; against CLK1 it was 0.012 µM; on CDK9 it was 0.57 µM; on DYRK1A [2] it was 0.002 µM; on DYRK1A [3], 0.017 µM.

`COc1ccc2c(c1)CC(n1c(C)nc3ccc(-c4cc(N)nc(N)c4)nc31)C2` (stereo not drawn) [Example 98, 4-[3-(5-methoxy-2,3-dihydro-1H-inden-2-yl)-2-methyl-3H-imidazo[4,5-b]pyridin-5-yl]pyridine-2,6-diamine]: the IC50 was 0.007 µM in experiment [1]; 0.009 µM at DYRK1B; 0.015 µM against CLK1; 0.004 µM against DYRK1A [2]; 0.019 µM at DYRK1A [3].

For `Cc1nc2ccc(-c3cc(N)nc(N)c3)nc2n1CC1Cc2ccccc2C1` [Example 114, 4-[3-(2,3-dihydro-1H-inden-2-ylmethyl)-2-methyl-3H-imidazo[4,5-b]pyridin-5-yl]pyridine-2,6-diamine], the IC50 in experiment [1] is 0.005 µM; at DYRK1B, 0.009 µM; at CLK1, 0.019 µM; against DYRK1A [2] it was 0.005 µM; at DYRK1A [3] it was 0.039 µM.

With `CCCCn1c(CCC)nc2ccc(-c3cc(N)nc(N)c3)nc21` [Example 161, 4-(3-butyl-2-propyl-3H-imidazo[4,5-b]pyridin-5-yl)pyridine-2,6-diamine], the IC50 in experiment [1] is 0.02 µM; against DYRK1B, 0.005 µM; against CLK1, 0.218 µM; against CDK9, greater than 10 µM; at DYRK1A [3], 0.143 µM.

Turning to `Cc1nc2ccc(-c3cc(N)nc(N)c3)nc2n1CCOc1cccc(Cl)n1` [Example 165, 4-(3-{2-[(6-chloropyridin-2-yl)oxy]ethyl}-2-methyl-3H-imidazo[4,5-b]pyridin-5-yl)pyridine-2,6-diamine], the IC50 is 0.009 µM in experiment [1]; 0.005 µM against DYRK1B; 0.015 µM at CLK1; 0.003 µM against DYRK1A [2]; 0.026 µM on DYRK1A [3].

As to `Cc1nc2ccc(-c3cc(N)nc(N)c3)nc2n1CCOc1cccc(Br)n1` [Example 168, 4-(3-{2-[(6-bromopyridin-2-yl)oxy]ethyl}-2-methyl-3H-imidazo[4,5-b]pyridin-5-yl)pyridine-2,6-diamine], the IC50 was 0.011 µM in experiment [1]; 0.006 µM at DYRK1B; 0.015 µM at CLK1; 0.002 µM against DYRK1A [2]; 0.032 µM at DYRK1A [3].

Consider `COc1cccc(OCCn2c(C)nc3ccc(-c4cc(N)nc(N)c4)nc32)c1` [Example 202, 4-{3-[2-(3-methoxyphenoxy)ethyl]-2-methyl-3H-imidazo[4,5-b]pyridin-5-yl}pyridine-2,6-diamine], for which the half-maximal inhibitory concentration (IC50) in experiment [1] stood at 0.023 µM; on CLK1, 0.018 µM; on DYRK1A [3], 0.18 µM.

For `Cc1nc2ccc(-c3cc(N)nc(N)c3)nc2n1CCOc1ccccc1F` [Example 203, 4-{3-[2-(2-fluorophenoxy)ethyl]-2-methyl-3H-imidazo[4,5-b]pyridin-5-yl}pyridine-2,6-diamine], the IC50 in experiment [1] was 0.017 µM; at CLK1 it was 0.016 µM; at DYRK1A [3], 0.148 µM.

With `Cc1nc2ccc(-c3cc(N)nc(N)c3)nc2n1CCOc1ccc(Cl)cc1` [Example 207, 4-{3-[2-(4-chlorophenoxy)ethyl]-2-methyl-3H-imidazo[4,5-b]pyridin-5-yl}pyridine-2,6-diamine], the figures for the IC50 (in experiment [1]; on CLK1; at DYRK1A [3]) were 0.026 µM, 0.021 µM and 0.12 µM, respectively.

Turning to `CCn1c(C#N)nc2ccc(-c3cc(N)nc(N)c3)nc21` [Example 223, 5-(2,6-diaminopyridin-4-yl)-3-ethyl-3H-imidazo[4,5-b]pyridine-2-carbonitrile], the IC50 in experiment [1] turned out to be 0.009 µM; against CLK1, 0.02 µM; at DYRK1A [3], 0.097 µM.

For `N#Cc1nc2ccc(-c3cc(N)nc(N)c3)nc2n1C1CC1` [Example 224, 3-cyclopropyl-5-(2,6-diaminopyridin-4-yl)-3H-imidazo[4,5-b]pyridine-2-carbonitrile], the IC50 was found to be 0.009 µM in experiment [1], 0.02 µM on CLK1 and 0.057 µM on DYRK1A [3].

On to `Cn1c(C#N)nc2ccc(-c3cc(N)nc(N)c3)nc21` [Example 227, 5-(2,6-diaminopyridin-4-yl)-3-methyl-3H-imidazo[4,5-b]pyridine-2-carbonitrile], for which the figures for the IC50 (in experiment [1]; at CLK1; on DYRK1A [3]) were 0.01 µM, 0.042 µM and 0.262 µM, respectively.
